The test system of the experiment is strain NA45-3 (ATCC 209681). As to the kind of experiment: Effect of magnesium on AA production from substrates by strain NA45-3. In kind it is cell-based, Prototheca moriformis. The settings on record: 24 hours; for conversion to AA, effect of magnesium in the resuspension buffer: NA45-3 grown Mg-limited, substrate 20 g/L.

Consider `O=C[C@@H](O)[C@@H](O)[C@H](O)[C@H](O)CO` [D-mannose], for which the “conversion to AA, effect of magnesium in the resuspension buffer” value is on record as “unaffected”. In the case of `O=C1O[C@H]([C@@H](O)CO)[C@@H](O)[C@@H]1O` [L-galactono-γ-lactone], the “conversion to AA, effect of magnesium in the resuspension buffer” value was “unaffected”. The “AA accumulation by cells grown under magnesium-sufficient conditions” value (NA45-3, substrate 20 g/L, regardless of magnesium in resuspension broth) was “enhanced”.

The values above are taken from patent US20020012979A1, “VITAMIN C PRODUCTION IN MICROORGANISMS AND PLANTS” (priority 1998, published 2002).
